Results on nine molecules are retold here after paper PMC10249031 (ACS Omega, 2023).

One series addresses EGFR-TK (Homo sapiens, UniProt P00533). The series can be described thus: ADP-Glo Kinase Assay, EGFR tyrosine kinase inhibition. The series is classed as biochemical. Conditions: for EGFR-TK inhibitory activity (screening): at 1 μM, compared to erlotinib, n = 2.
For another series, the system named is A549 cells. Kind of series: MTT cytotoxicity assay, A549. Conditions: for Cell viability of A549: 10 μM. The series is classed as cell-based, human.
The next series deals with Vero cells. Kind of series: MTT cytotoxicity assay, Vero normal cell line. To be noted: Primates, 72 h, read-out: IC50 Vero. The series is classed as cell-based, monkey.
Series [1] has as its system A431 cells. Conditions: 10 μM, 72 h, MTT.
For series [2], the system named is A431 cells. Kind of series: cells. Conditions: Homo sapiens, A-431, 72 h, read-out: IC50 A431.
The mark [3] stands for this setting: Homo sapiens, A549, 72 h, read-out: IC50 A549.

Molecules are shown by their SMILES. Read-outs that look alike come from different tables or passages of the source.

EGFR-TK, sequence (P00533 25-1210): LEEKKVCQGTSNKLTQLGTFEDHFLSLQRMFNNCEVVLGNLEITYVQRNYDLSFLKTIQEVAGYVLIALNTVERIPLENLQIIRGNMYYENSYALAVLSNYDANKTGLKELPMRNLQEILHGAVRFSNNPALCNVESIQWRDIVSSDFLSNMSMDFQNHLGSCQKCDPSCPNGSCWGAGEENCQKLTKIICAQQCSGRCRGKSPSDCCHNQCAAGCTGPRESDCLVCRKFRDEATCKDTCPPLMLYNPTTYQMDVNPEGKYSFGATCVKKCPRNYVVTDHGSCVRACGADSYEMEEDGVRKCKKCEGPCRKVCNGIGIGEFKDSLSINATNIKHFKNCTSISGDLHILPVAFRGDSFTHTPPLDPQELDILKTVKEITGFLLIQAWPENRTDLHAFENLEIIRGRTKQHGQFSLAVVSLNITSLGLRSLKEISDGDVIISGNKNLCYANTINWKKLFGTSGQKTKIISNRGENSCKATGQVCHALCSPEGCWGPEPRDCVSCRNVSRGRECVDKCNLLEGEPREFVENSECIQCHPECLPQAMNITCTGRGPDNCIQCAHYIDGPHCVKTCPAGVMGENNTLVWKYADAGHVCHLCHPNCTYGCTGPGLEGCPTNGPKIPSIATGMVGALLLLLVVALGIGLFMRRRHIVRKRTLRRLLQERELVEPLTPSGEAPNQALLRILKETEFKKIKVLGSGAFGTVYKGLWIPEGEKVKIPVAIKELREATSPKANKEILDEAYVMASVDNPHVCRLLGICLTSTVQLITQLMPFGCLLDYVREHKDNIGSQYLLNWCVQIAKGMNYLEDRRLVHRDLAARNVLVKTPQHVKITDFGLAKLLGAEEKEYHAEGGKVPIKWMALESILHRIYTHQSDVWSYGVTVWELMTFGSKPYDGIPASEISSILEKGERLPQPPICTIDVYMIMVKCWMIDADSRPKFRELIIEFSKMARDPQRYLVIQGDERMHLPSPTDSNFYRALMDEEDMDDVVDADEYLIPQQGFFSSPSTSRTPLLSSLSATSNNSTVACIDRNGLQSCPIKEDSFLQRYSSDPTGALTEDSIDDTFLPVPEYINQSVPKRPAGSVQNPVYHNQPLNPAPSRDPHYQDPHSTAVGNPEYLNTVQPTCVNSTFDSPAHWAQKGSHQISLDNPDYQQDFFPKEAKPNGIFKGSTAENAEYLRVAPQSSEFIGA

Consider `COc1ccc(S(=O)(=O)c2c3c4ccccc4n(C)c(-c4ccccc4)c-3c3ccccc23)cc1` [SIQ3], for which the “EGFR-TK inhibitory activity (screening)” value at EGFR-TK was “higher EGFR-TK inhibitory activity than erlotinib”. Also, in the series on A549 cells (72 h, MTT), the “Cell viability of A549” value is recorded as “more vulnerable”. Moreover, the IC50 in the series with A549 cells (setting [3]) was 33.5 ± 0.47 µM; with Vero cells, above 100 µM; in the series on A431 cells [2] it was 17.7 ± 0.35 µM. Also, in the series with A431 cells [1], the “Cell viability of A431” value is reported as “more susceptible”.
`C#Cc1cccc(Nc2ncnc3cc(OCCOC)c(OCCOC)cc23)c1` [erlotinib, reference compound]: the IC50 in the series on A549 cells (Homo sapiens, A549, 72 h, read-out: IC50 A549, MTT, 72 h) turned out to be 33.3 µM; in the series with A549 cells (read-out: IC50 A549, MTT, 72 h) it was 33.3 ± 1.88 µM; in the series on Vero cells it was 35 ± 1.35 µM.
With `Cc1ccc(S(=O)(=O)c2c3c4ccccc4n(C)c(-c4ccc(C)cc4C)c-3c3ccccc23)cc1` [SIQ17], the “EGFR-TK inhibitory activity (screening)” value on EGFR-TK is on record as “higher EGFR-TK inhibitory activity than erlotinib”. For the same molecule, the “Cell viability of A549” value with A549 cells (72 h, MTT) is “more vulnerable”. For the same molecule, the figures for the IC50 in the series on A549 cells (setting [3]), in the series on Vero cells and in the series with A431 cells [2] were 33 ± 0.59 µM, above 100 µM and 19.2 ± 0.97 µM, respectively.
For `Cc1ccc(S(=O)(=O)c2c3c4ccccc4n(C)c(-c4ccc(Cl)cc4)c-3c3ccccc23)cc1` [SIQ12], the “EGFR-TK inhibitory activity (screening)” value on EGFR-TK is “higher EGFR-TK inhibitory activity than erlotinib”. In addition, the “Cell viability of A549” value with A549 cells (72 h, MTT) is “more vulnerable”. The IC50 with A549 cells (setting [3]) was 23.2 ± 0.42 µM; with Vero cells, 7.25 ± 0.12 µM; in the series with A431 cells [2], 13.1 ± 0.5 µM. The “Cell viability of A431” value with A431 cells [1] is “more susceptible”.
With `Cn1c(-c2ccccc2)c2c3ccccc3c(S(=O)(=O)c3ccc(Cl)cc3)c-2c2ccccc21` [SIQ5], the “EGFR-TK inhibitory activity (screening)” value at EGFR-TK is given as “higher EGFR-TK inhibitory activity than erlotinib”. Besides, the “Cell viability of A549” value in the series on A549 cells (72 h, MTT) is “more vulnerable”. Also, the IC50 was 16.8 ± 0.41 µM with A549 cells (setting [3]), 8.06 ± 0.15 µM in the series on Vero cells and 9.93 ± 0.45 µM with A431 cells [2]. For the same molecule, the “Cell viability of A431” value in the series on A431 cells [1] is on record as “more susceptible”.
Turning to `Cc1ccc(S(=O)(=O)c2c3c4cc(C)ccc4n(C)c(-c4ccccc4)c-3c3ccccc23)cc1` [SIQ19], the “EGFR-TK inhibitory activity (screening)” value on EGFR-TK was “higher EGFR-TK inhibitory activity than erlotinib”. For the same molecule, the IC50 in the series on A549 cells (setting [3]) was 29.3 ± 0.44 µM; in the series on Vero cells, 5.88 ± 0.33 µM; in the series with A431 cells [2], 11.9 ± 0.41 µM. For the same molecule, in the series on A431 cells [1], the “Cell viability of A431” value is “more susceptible”.
Consider `Cc1ccc(S(=O)(=O)c2c3c4ccccc4n(C)c(-c4ccccc4)c-3c3ccccc23)c(C)c1` [SIQ8], for which the “EGFR-TK inhibitory activity (screening)” value at EGFR-TK is given as “higher EGFR-TK inhibitory activity than erlotinib”. Besides, the “Cell viability of A549” value with A549 cells (72 h, MTT) is given as “more vulnerable”. The IC50 in the series with A549 cells (setting [3]) stood at 27.2 ± 0.71 µM; in the series with Vero cells, 21.7 ± 0.5 µM; with A431 cells [2], 14.1 ± 0.73 µM.
Turning to `COc1ccc(-c2c3c4ccccc4c(S(=O)(=O)c4ccc(C)cc4)c-3c3ccccc3n2C)cc1` [SIQ11], at EGFR-TK, the IC50 turned out to be 0.0232 ± 0.00876 µM and the “EGFR-TK inhibitory activity (screening)” value is “higher EGFR-TK inhibitory activity than erlotinib”.
For the molecule `Cc1ccc(-c2c3c4ccccc4c(S(=O)(=O)c4ccc(C)cc4)c-3c3ccccc3n2C)cc1` [SIQ10], on EGFR-TK, the IC50 stood at 0.0214 ± 0.00574 µM and the “EGFR-TK inhibitory activity (screening)” value is on record as “higher EGFR-TK inhibitory activity than erlotinib”.
